Test results reported in patent publication US8981179B2, “Transgenic non-human animal and uses thereof” (Sanofi, priority 2009, dated 2015).
One block for each compound: values may come before it.

Legend:
[1] = target: T1, prostaglandin D2 receptor 1 (DP1) (Mus musculus, UniProt P70263); test: Whole splenocytes CreLuc luciferase assay, DP1 agonist; assay type: cell-based; settings: line 64 whole splenocytes, 10 uM, 4 hours
T1 construct: Primary microglia were isolated from the cortices from P2 mice; endogenous in cells; host or cells: whole splenocytes, CD4+ T cells and primary microglia (P2 cortices), CreLuc mouse line 64
T1 sequence (P70263 1-357): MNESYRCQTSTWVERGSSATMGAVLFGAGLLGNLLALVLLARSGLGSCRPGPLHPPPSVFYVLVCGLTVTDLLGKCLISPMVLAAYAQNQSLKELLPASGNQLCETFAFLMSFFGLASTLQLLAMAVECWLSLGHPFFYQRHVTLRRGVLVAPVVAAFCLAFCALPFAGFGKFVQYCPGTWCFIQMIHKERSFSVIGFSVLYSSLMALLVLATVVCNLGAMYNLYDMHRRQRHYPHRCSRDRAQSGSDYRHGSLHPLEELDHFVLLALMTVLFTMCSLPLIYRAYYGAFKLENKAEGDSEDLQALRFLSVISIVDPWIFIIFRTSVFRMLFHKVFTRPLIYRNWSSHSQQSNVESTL
Method: Whole splenocyte preps isolated from CreLuc mice were used to show the effects of general cAMP inducers such as forskolin and rolipram, as well as Gs agonists on luciferase expression (FIG. 16). Spleens were harvested from the animals in 1×HBSS (Invitrogen, Carlsbad, Calif., cat#14025). The cells were then isolated by mechanically disrupting the spleen capsule using the end of a 5 ml syringe in 5 mls of D-PBS (Invitrogen, Carlsbad, Calif., cat#14190). The cell suspension was then passed through a 70 um strainer into a 50 ml conical tube. The cells were then spun down at 800 rpm, then resuspended and incubated for 6 minutes at room temperature in 5 ml of 1× Pharm Lyse solution (BD BioSciences, cat#555899). Cells were then washed by adding 28 mls of media consisting of RPMI 1640 (Invitrogen, Carlsbad, Calif., cat#11875), 10% FCS (Invitrogen, Carlsbad, Calif., cat#16000), 1% pen/strep (Invitrogen, Carlsbad, Calif., cat#15070) and 0.1% β-mercaptoethanol (Invitrogen, Carlsbad, Calif., cat#21985). Cells were diluted to 2×10^6/ml, and 100 ul of the cells were plated per well in a 96 well white opaque plate. Half of the cells were stimulated for 24 hours with anti-CD3 antibody (BD Pharmingen, cat#553058), the other half were untreated. […] After 4 hours, 100 μl of BrightGlo (Promega, Madison, Wis., cat#E2610) and the assay was read on a TopCount luminometer. […]

[2] = target: T2, DP (Mus musculus, UniProt P70263); test: Isolated CD4+ T cells CreLuc luciferase assay, DP agonist; assay type: cell-based; settings: line 64 CD4+ T cells, anti CD3 24 hours, 10 μM, 4 hours
T2 construct: Primary microglia were isolated from the cortices from P2 mice; endogenous in cells; host or cells: whole splenocytes, CD4+ T cells and primary microglia (P2 cortices), CreLuc mouse line 64
T2 sequence (P70263 1-357): T1 sequence (P70263 1-357)
Method: The effects of different Gs agonists on luciferase levels in anti CD3 stimulated CD4+ T cells isolated from CreLuc mice was studied (FIG. 19). Whole splenocyte populations were prepared by mechanical disruption. CD4+ cells were then isolated by MACS Magnetic Separation with Positive Selection (Miltenyi Biotec cat#130-049-201). The cells, 1.5×10^5 per well, were then plated on 96 well white opaque plates and then stimulated with anti CD3 antibodies (BD Pharmingen cat#553058). After 24 hours, compounds were added for an additional 4 hours. Gs agonists for DP (BW245C), EP2 (EX00000173A) and ADβR (isoproterenol) were all used at 10 μM. Forskolin 5 μM, and rolipram 10 μM. BrightGlo (Promega, Madison, Wis., cat#E2610) was added and the assay was read on the TopCount. A 25-fold increase is observed in cells treated with forskolin and rolipram. […] The transgene was responsive to specific Gs agonists as well as general modulators of the cAMP pathway.

[3] = target: T3, DP1 receptor (Mus musculus, UniProt P70263); test: Primary microglia CreLuc luciferase assay, DP agonist; assay type: cell-based; settings: 10 μM, 4 hours
T3 construct: Primary microglia were isolated from the cortices from P2 mice; endogenous in cells; host or cells: whole splenocytes, CD4+ T cells and primary microglia (P2 cortices), CreLuc mouse line 64
T3 sequence (P70263 1-357): T1 sequence (P70263 1-357)
Method: (§1) Induction of luciferase expression in microglia isolated from CreLuc mice by the general cAMP activators, forskolin and rolipram, and an agonist for the DP receptor, BW245C was examined (FIG. 22). Primary microglia were isolated from the cortices from P2 mice in media consisting of DMEM (GIBCO Cat#11995), 10% FBS (GIBCO Cat#16140) and 1% Penicillin-Streptomycin 100× (GIBCO Cat#15140). The cells were plated in 96 well format on Poly-D-Lysine-coated plates. Cells were either left untreated or stimulated for 2 hours with 100 ng/ml LPS. Compounds were then added for an additional 4 hours before the Bright Glo assay was run. The compounds used were 5 μM forskolin, 10 μM rolipram or the combination of the two, or the Gs agonist for the DP1 receptor, BW245C at 10 μM. In unstimulated conditions, microglia are unresponsive to general cAMP modulators and the specific Gs agonist for the DP receptor. However, when microglia were stimulated with LPS, the cells became responsive to forskolin and BW245C.

[4] = system: cAMP (CreLuc luciferase reporter); test: Primary microglia CreLuc luciferase assay, general cAMP activators; assay type: cell-based, mouse; settings: line 64, unstimulated, 5 μM forskolin, 10 μM rolipram, 4 hours
Method: as §1

[5] = system: plasma cAMP; test: In vivo stimulation of cAMP in plasma (ELISA); design: species or system FVB/Tac mice; settings: FVB/Tac females, i.p., forskolin 5 mg/kg, rolipram 10 mg/kg, 30 minutes
Method: FVB/Tac females were dosed with either vehicle (1% DMSO) or drugs i.p., then 30 minutes later, blood samples were collected and assayed for cAMP by ELISA (Assay Designs, Ann Arbor, Mich., cat#900-163). The drugs used are as follows: 5 mg/kg forskolin (F) (Sigma F6886), 5 mg/kg water soluble forskolin (H20F) (Calbiochem 344273), 10 mg/kg rolipram (R) (Sigma R6520) or combinations of either forskolin plus rolipram (F/R). […] Forskolin increases cAMP levels by activating adencylate cyclase while inhibitors of PDE4, such as rolipram, raise plasma cAMP by preventing hydrolysis of cAMP. A combination of rolipram and water soluble forskolin increases cAMP levels in vivo 14 fold. This combination was used to provide a large window of induction for founder screening by bioimaging, a representative study is shown in FIG. 6.
FIG. 5B is a cAMP assay on plasma levels in wild-type mice following various treatment with forskolin (F), rolipram (R) or a combination of forskolin and rolipram (F/R). […]

[6] = system: plasma cAMP; settings: Balb/c mice, 10 mg/kg, blood harvested after 20 minutes; cited from earlier work
[7] = system: beta-cell; test: Effect of beta-cell toxin on induction of CRE-Luc by AVE0010; assay type: in vivo, mouse; settings: line 11, STZ 200 mpk, ip, imaged four days later after AVE0010
[8] = Blood glucose in unfasted CRE-luc mice; assay type: in vivo, mouse; settings: line 11, STZ 200 mpk, ip, unfasted mice
Method: The induction of CRE-Luc by AVE0010 is likely beta-cell-specific (FIG. 31). Animals were treated as described in FIG. 30. Blood glucose levels were measured by tail vein nicking on unfasted mice. Glucose levels were read on a Bayer glucometer. Glucose levels are shown as mg glucose/[…]. Fold induction is the luciferase bioimaging levels of AVE10 dosing versus the baseline signals. Blood glucose levels (BG) were increased by STZ (upper left panel). Non-fasting BG levels were reduced by AVE0010 (0.1 mg/kg, sc).

luciferase versus DMSO only control (t-test) [1]: Statistically significant increases | increase of luciferase [2]: 3 fold | luciferase response of LPS stimulated microglia ([3]; line 64, 100 ng/ml LPS 2 hours): responsive | luciferase response of unstimulated microglia ([3]; line 64, unstimulated): unresponsive
Compound: O=C(O)CCCCCCC1C(=O)NC(=O)N1CCC(O)C1CCCCC1 (stereo not drawn) [BW245C]

luciferase response of unstimulated microglia [4]: unresponsive
Compound: COc1ccc(C2CNC(=O)C2)cc1OC1CCCC1 (stereo not drawn) [rolipram]
elevation of circulating cAMP levels vs vehicle [5]: statistically significance in their elevation | plasma cAMP levels [6]: significantly increase

Compound: CN(N=O)C(=O)N[C@H]1C(O)O[C@H](CO)[C@@H](O)[C@@H]1O (mixture of isomers) [STZ, streptozotocin]
luciferase induction by AVE0010 compared to vehicle group [7]: decreased luciferase induction | blood glucose levels (BG) [8]: increased
